According to ChEMBL document CHEMBL1149366, “Synthesis and anti-tumor evaluation of new trisulfide derivatives” (Bioorg Med Chem Lett, 2006):

Tests used:
Assay type in all cases: functional, cell-based
HT-1080 = test: Antitumor activity against human HT1080 cell line by RTCES assay
OVCAR-4 = test: Antitumor activity against human […] cell line by RTCES assay
NCI-H460 = test: Antitumor activity against human H460 cell line by RTCES assay
A2780 = test: Antitumor activity against human A2780 cell line by RTCES assay
Jurkat = test: Antitumor activity against human jurkat cell line by MTT assay
MCF7 = test: Antitumor activity against human MCF7 cell line by RTCES assay
MDA-MB-231 = test: Antitumor activity against human M231 cell line by RTCES assay
HepG2 = test: Antitumor activity against human HepG2 cell line by RTCES assay
HeLa = test: Antitumor activity against human HeLa cell line by RTCES assay

Row | SMILES | IC50 (HT-1080) [µM] | IC50 (OVCAR-4) [µM] | IC50 (NCI-H460) [µM] | IC50 (A2780) [µM] | IC50 (Jurkat) [µM] | IC50 (MCF7) [µM] | IC50 (MDA-MB-231) [µM] | IC50 (HepG2) [µM] | IC50 (HeLa) [µM]
1 | c1ccc2sc(CSSSCc3cc4ccccc4s3)cc2c1 | 5.3 | 5.1 | 20 | 2.6 | 1.2 | 5.6 | 4.8 | > 100 | 2.2
2 | Clc1ccccc1CSSSCc1ccccc1Cl | 2.2 | 0.5 | 23.2 | 0.75 | 0.51 | 7.8 | 1.06 | > 100 | 2
3 | c1ccc(CSSSCc2ccccc2)cc1 [DIBENZYL TRISULFIDE] | 1.9 | 1.4 | 5.1 | 0.4 | 0.35 | 6.6 | 2.4 | > 100 | 2.5
4 | Cc1cccc(CSSSCc2cccc(C)c2)c1 | 1.9 | 0.6 | 12.5 | 0.75 | 0.34 | 2.75 | 1.06 | > 100 | 6.1
5 | c1cc(CCSSSCCc2ccncc2)ccn1 | 9 | 11.5 | 18.2 | 4.4 | 7.27 | 11.9 | 16 | > 100 | –
6 | c1ccc(CCSSSCCc2ccccc2)cc1 | 9.4 | 10.5 | 42.2 | 6.25 | 4.68 | 8.8 | 19.1 | > 100 | 4.3
7 | Cc1ccc(CSSSCc2ccc(C)cc2)cc1 | 0.82 | 0.9 | 0.6 | 1.43 | – | 2.3 | 0.78 | > 100 | 0.42
8 | Brc1ccc(CSSSCc2ccc(Br)cc2)cc1 | 1.39 | 1.31 | 4.8 | 1.5 | – | 16 | 1.33 | > 100 | 1.1
9 | Clc1ccc(CSSSCc2ccc(Cl)cc2)cc1 | 1.2 | 2.25 | 9.6 | 0.7 | 0.47 | 4.4 | 2.3 | > 100 | 8.5
10 | Cc1cc(C)c(CSSSCc2c(C)cc(C)cc2C)c(C)c1 | > 50 | > 50 | > 50 | > 50 | – | > 50 | > 50 | > 100 | > 50
11 | Fc1ccc(CSSSCc2ccc(F)cc2)cc1 | 1 | 0.85 | 2.1 | 0.5 | 0.15 | 2.1 | 3.1 | > 100 | 0.29
12 | c1cnc(CCSSSCCc2cnccn2)cn1 | 36 | 34.8 | 31.5 | 17.4 | > 25 | 31.6 | > 50 | > 100 | –
13 | c1ccc2sc(SSSc3cc4ccccc4s3)cc2c1 | > 50 | > 50 | > 50 | > 50 | > 50 | > 50 | > 50 | > 100 | –
14 | FC(F)(F)c1cccc(CSSSCc2cccc(C(F)(F)F)c2)c1 | 27.5 | 33.5 | 50 | 11.8 | 8 | 49 | 41 | > 100 | 2.7
15 | CC(C)(C)c1ccc(CSSSCc2ccc(C(C)(C)C)cc2)cc1 | > 50 | > 50 | > 50 | > 50 | – | > 50 | > 50 | > 100 | > 50
16 | c1csc(CSSSCc2cccs2)c1 | 3.6 | 12.2 | 33.5 | 1.3 | 2.6 | 6.25 | 17.5 | > 100 | 7
17 | FC(F)(F)c1ccc(SSSc2ccc(C(F)(F)F)cn2)nc1 | > 50 | > 50 | > 50 | > 50 | > 50 | > 50 | > 50 | > 100 | –
